For this assay, the system named is L1210 leukemia ip in BDF1 mice, survival T/C. Nature of the assay: NCI In Vivo Anticancer Drug Screen. Data for tumor model L1210 Leukemia (intraperitoneal) in B6D2F1 (BDF1) mice. The following applies: higher = longer survival. An outline of the steps: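 Survival endpoint. Drug-treated group vs vehicle group, expressed as T divided by C. Tumor passaged by transplantation.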

The mark [1] stands for this setting: endpoint: mean survival time, dose: 100.0 mg/kg/injection, schedule: Q04DX003 (ip), vehicle: Klucel (hydroxypropylcellulose) (HPC).
Setting [2] is: endpoint: mean survival time, dose: 200.0 mg/kg/injection, schedule: Q04DX003 (ip), vehicle: Klucel (hydroxypropylcellulose) (HPC).
Where [3] appears, read: endpoint: mean survival time, dose: 400.0 mg/kg/injection, schedule: Q04DX003 (ip), vehicle: Klucel (hydroxypropylcellulose) (HPC).
Where [4] appears, read: endpoint: mean survival time, dose: 25.0 mg/kg/injection, schedule: Q01DX009 (ip), vehicle: saline with Tween-80.
The mark [5] stands for this setting: endpoint: mean survival time, dose: 50.0 mg/kg/injection, schedule: Q01DX009 (ip), vehicle: saline with Tween-80.
The mark [6] stands for this setting: endpoint: mean survival time, dose: 100.0 mg/kg/injection, schedule: Q01DX009 (ip), vehicle: saline with Tween-80.

Among the data in PubChem BioAssay AID248 (DTP/NCI, 2004) are T/C values, retold here.

Where “and” joins values, the source holds several entries; their conditions need not be identical. Equal values may be shown once. Inconclusive results and toxic doses are left out.

Regarding `C[C@@H](CN1CC(=O)NC(=O)C1)N1CC(=O)NC(=O)C1`, the T/C reads like this: (endpoint: mean survival time, dose: 25.0 mg/kg/injection, schedule: Q04DX003 (ip), vehicle: saline) 116 % of control; (endpoint: mean survival time, dose: 25.0 mg/kg/injection, schedule: Q04DX003 (ip), vehicle: water) 111 % of control; (endpoint: mean survival time, dose: 32.0 mg/kg/injection, schedule: Q04DX003 (oral), vehicle: saline) 117 % of control; (endpoint: mean survival time, dose: 50.0 mg/kg/injection, schedule: Q04DX003 (ip), vehicle: saline) 116 % of control; (endpoint: mean survival time, dose: 50.0 mg/kg/injection, schedule: Q04DX003 (ip), vehicle: water) 100 % of control; (endpoint: mean survival time, dose: 64.0 mg/kg/injection, schedule: Q04DX003 (oral), vehicle: saline) 151 % of control. Besides, the T/C is 115 % of control (endpoint: mean survival time, dose: 100.0 mg/kg/injection, schedule: Q04DX003 (ip), vehicle: saline); 180 % of control (endpoint: mean survival time, dose: 128.0 mg/kg/injection, schedule: Q04DX003 (oral), vehicle: saline); 180 % of control (endpoint: mean survival time, dose: 256.0 mg/kg/injection, schedule: Q04DX003 (oral), vehicle: saline); 150 % of control (endpoint: mean survival time, dose: 400.0 mg/kg/injection, schedule: Q04DX003 (ip), vehicle: saline); 158 % of control (endpoint: mean survival time, dose: 400.0 mg/kg/injection, schedule: Q04DX003 (ip), vehicle: water); 155 % of control (endpoint: mean survival time, dose: 512.0 mg/kg/injection, schedule: Q04DX003 (oral), vehicle: saline). The T/C (endpoint: mean survival time, dose: 800.0 mg/kg/injection, schedule: Q04DX003 (ip), vehicle: saline) was 187 % of control; the T/C (endpoint: median survival time, dose: 8.0 mg/kg/injection, schedule: Q01DX009 (sc), vehicle: saline) is 118 % of control; the T/C (endpoint: median survival time, dose: 8.0 mg/kg/injection, schedule: Q03HX008 (ip), vehicle: saline) is 152 % of control; the T/C (endpoint: median survival time, dose: 8.0 mg/kg/injection, schedule: Q03HX016 (ip), vehicle: saline) is 173 % of control; the T/C (endpoint: median survival time, dose: 8.0 mg/kg/injection, schedule: Q03HX024 (ip), vehicle: saline) is 263 % of control; the T/C (endpoint: median survival time, dose: 16.0 mg/kg/injection, schedule: Q01DX009 (sc), vehicle: saline) is 119 % of control. Besides, the T/C reads like this: (endpoint: median survival time, dose: 16.0 mg/kg/injection, schedule: Q03HX008 (ip), vehicle: saline) 152 % of control; (endpoint: median survival time, dose: 16.0 mg/kg/injection, schedule: Q03HX016 (ip), vehicle: saline) 186 % of control; (endpoint: median survival time, dose: 16.0 mg/kg/injection, schedule: Q03HX024 (ip), vehicle: saline) 300 % of control; (endpoint: median survival time, dose: 32.0 mg/kg/injection, schedule: Q03HX008 (ip), vehicle: saline) 155 % of control; (endpoint: median survival time, dose: 32.0 mg/kg/injection, schedule: Q03HX016 (ip), vehicle: saline) 193 % of control; (endpoint: median survival time, dose: 32.0 mg/kg/injection, schedule: Q03HX024 (ip), vehicle: saline) 113 % of control. Further, the T/C runs as follows: (endpoint: median survival time, dose: 64.0 mg/kg/injection, schedule: Q01DX001 (ip), vehicle: saline) 108 % of control; (endpoint: median survival time, dose: 64.0 mg/kg/injection, schedule: Q01DX009 (sc), vehicle: saline) 159 % of control; (endpoint: median survival time, dose: 64.0 mg/kg/injection, schedule: Q03HX008 (ip), vehicle: saline) 158 % of control; (endpoint: median survival time, dose: 64.0 mg/kg/injection, schedule: Q03HX024 (ip), vehicle: saline) 94 % of control; (endpoint: median survival time, dose: 64.0 mg/kg/injection, schedule: Q04DX003 (ip), vehicle: saline) 110 % of control; (endpoint: median survival time, dose: 64.0 mg/kg/injection, schedule: Q04DX003 (sc), vehicle: saline) 106 % of control. The T/C (endpoint: median survival time, dose: 64.0 mg/kg/injection, schedule: Q08DX002 (ip), vehicle: saline) was 104 % of control; the T/C (endpoint: median survival time, dose: 128.0 mg/kg/injection, schedule: Q01DX001 (ip), vehicle: saline) was 106 % of control; the T/C (endpoint: median survival time, dose: 128.0 mg/kg/injection, schedule: Q03HX008 (ip), vehicle: saline) is 152 % of control; the T/C (endpoint: median survival time, dose: 128.0 mg/kg/injection, schedule: Q03HX016 (ip), vehicle: saline) was 107 % of control; the T/C (endpoint: median survival time, dose: 128.0 mg/kg/injection, schedule: Q03HX024 (ip), vehicle: saline) was 86 % of control; the T/C (endpoint: median survival time, dose: 128.0 mg/kg/injection, schedule: Q04DX003 (ip), vehicle: saline) is 118 % of control. Also, the T/C was 109 % of control (endpoint: median survival time, dose: 128.0 mg/kg/injection, schedule: Q04DX003 (sc), vehicle: saline); 109 % of control (endpoint: median survival time, dose: 256.0 mg/kg/injection, schedule: Q01DX001 (ip), vehicle: saline); 118 % of control (endpoint: median survival time, dose: 256.0 mg/kg/injection, schedule: Q04DX003 (ip), vehicle: saline); 121 % of control (endpoint: median survival time, dose: 256.0 mg/kg/injection, schedule: Q08DX002 (ip), vehicle: saline); 111 % of control (endpoint: median survival time, dose: 512.0 mg/kg/injection, schedule: Q01DX001 (ip), vehicle: saline); 182 % of control (endpoint: median survival time, dose: 512.0 mg/kg/injection, schedule: Q04DX003 (sc), vehicle: saline). For the same molecule, the T/C by setting is: (endpoint: median survival time, dose: 1024.0 mg/kg/injection, schedule: Q04DX003 (ip), vehicle: saline) 186 % of control; (endpoint: median survival time, dose: 1024.0 mg/kg/injection, schedule: Q04DX003 (sc), vehicle: saline) 236 % of control; (endpoint: median survival time, dose: 1024.0 mg/kg/injection, schedule: Q08DX002 (ip), vehicle: saline) 150 % of control.

In the case of `O=[N+]([O-])c1ccc(Cl)c(OCCOc2ccc(S(=O)(=O)F)cc2)c1`, the T/C is, setting by setting: (endpoint: mean survival time, dose: 100.0 mg/kg/injection, schedule: Q01DX001 (ip), vehicle: saline with Tween-80) 96 % of control; (endpoint: mean survival time, dose: 200.0 mg/kg/injection, schedule: Q01DX001 (ip), vehicle: saline with Tween-80) 87 % of control; (endpoint: mean survival time, dose: 400.0 mg/kg/injection, schedule: Q01DX001 (ip), vehicle: saline with Tween-80) 90 % of control.

`O=C(NC(=O)C(Cl)Cl)Nc1ccc2c(c1)-c1ccccc1C2`: the T/C is 87 % of control (endpoint: mean survival time, dose: 100.0 mg/kg/injection, schedule: Q01DX001 (ip), vehicle: Klucel (hydroxypropylcellulose) (HPC)); 96 % of control (endpoint: mean survival time, dose: 100.0 mg/kg/injection, schedule: Q01DX009 (ip), vehicle: Klucel (hydroxypropylcellulose) (HPC)); 92 % of control under setting [1]; 90 % of control (endpoint: mean survival time, dose: 200.0 mg/kg/injection, schedule: Q01DX001 (ip), vehicle: Klucel (hydroxypropylcellulose) (HPC)); 94 % of control (endpoint: mean survival time, dose: 200.0 mg/kg/injection, schedule: Q01DX009 (ip), vehicle: Klucel (hydroxypropylcellulose) (HPC)); 92 % of control under setting [2]. The T/C is, setting by setting: (endpoint: mean survival time, dose: 400.0 mg/kg/injection, schedule: Q01DX001 (ip), vehicle: Klucel (hydroxypropylcellulose) (HPC)) 92 % of control; (endpoint: mean survival time, dose: 400.0 mg/kg/injection, schedule: Q01DX009 (ip), vehicle: Klucel (hydroxypropylcellulose) (HPC)) 100 % of control; under setting [3], 88 % of control.

As for `Nc1nc(N)c2c(no[n+]2[O-])n1`, the T/C (endpoint: mean survival time, dose: 75.0 mg/kg/injection, schedule: Q01DX001 (ip), vehicle: other) is 98 % of control.

In the case of `O=C(C=C(C(F)(F)F)C(F)(F)F)c1cccc([N+](=O)[O-])c1`, the T/C was 101 % of control (endpoint: mean survival time, dose: 6.25 mg/kg/injection, schedule: Q01DX009 (ip), vehicle: saline with Tween-80); 103 % of control (endpoint: mean survival time, dose: 12.5 mg/kg/injection, schedule: Q01DX009 (ip), vehicle: saline with Tween-80); 97 % of control under setting [4].

Take `C/C=C(\C)C1(CC)C(=O)NC(=O)N(C)C1=O` (stereo unspecified): the T/C runs as follows: (endpoint: mean survival time, dose: 75.0 mg/kg/injection, schedule: Q01DX001 (ip), vehicle: saline) 93 % of control; (endpoint: mean survival time, dose: 150.0 mg/kg/injection, schedule: Q01DX001 (ip), vehicle: saline) 97 % of control.

As for `O=C(CCCCC(=O)N/N=C/c1ccncc1)N/N=C/c1ccncc1`, the T/C was 94 % of control under setting [4]; 91 % of control under setting [5]; 96 % of control and 89 % of control under setting [6]; 91 % of control (endpoint: mean survival time, dose: 400.0 mg/kg/injection, schedule: Q01DX009 (ip), vehicle: saline with Tween-80).

With `Cc1c(Cl)ccc2c(=O)c(C(=O)O)c[nH]c12`, the T/C is 95 % of control under setting [1], 103 % of control under setting [2] and 97 % of control under setting [3].

Consider `CCOC(=O)CCC(C)Br` (stereo unspecified), for which the T/C runs as follows: under setting [5], 97 % of control; under setting [6], 101 % of control; (endpoint: mean survival time, dose: 200.0 mg/kg/injection, schedule: Q01DX009 (ip), vehicle: saline with Tween-80) 108 % of control.

With `CC(=O)Cc1ccc(Cl)cc1`, the T/C runs as follows: (endpoint: mean survival time, dose: 100.0 mg/kg/injection, schedule: Q04DX002 (ip), vehicle: saline) 92 % of control; (endpoint: mean survival time, dose: 200.0 mg/kg/injection, schedule: Q04DX002 (ip), vehicle: saline) 95 % of control; (endpoint: mean survival time, dose: 400.0 mg/kg/injection, schedule: Q04DX002 (ip), vehicle: saline) 99 % of control.
